From ChEMBL document CHEMBL1201862, “PubChem BioAssay data set” (2004)
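Where inhibition never reached the appropriate level, the endpoint shown equals the highest concentration tested. Otherwise, values were interpolated linearly from a five-concentration, 48-hour dose response in 96-well plates. GI50 is the concentration that inhibits growth by half.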 Activity calls are given as the source filed them. Cut-off read from the data, not from the text of the source: active = GI50 up to about 1.1 µM and inactive = higher.

Key:
Assay in all cases: growth of human tumour cells (NCI), 48 h
[1] = system: SF-539
[2] = system: OVCAR-4
[3] = system: Malme-3M
[4] = system: NCI-H23
[5] = system: SK-OV-3
[6] = system: HOP-62
[7] = system: A498
[8] = system: TK-10
[9] = system: UACC-257
[10] = system: SF-268
[11] = system: MOLT-4
[12] = system: SR
[13] = system: SK-MEL-2
[14] = system: UO-31
[15] = system: HL-60
[16] = system: DMS-114
[17] = system: DU-145
[18] = system: MDA-MB-435
[19] = system: T47D
[20] = system: Hs-578T

Row | SMILES | GI50 [1] | GI50 [2] | GI50 [3] | GI50 [4] | GI50 [5] | GI50 [6] | GI50 [7] | GI50 [8] | GI50 [9] | GI50 [10] | GI50 [11] | GI50 [12] | GI50 [13] | GI50 [14] | GI50 [15] | GI50 [16] | GI50 [17] | GI50 [18] | GI50 [19] | GI50 [20]
1 | C=C1CCC2C(C)(CO)C(O)CCC2(C)C1CC(O)C1=CCOC1=O (stereo unspecified) | 24.3 µM (inactive) | 61.1 µM (inactive) | > 100 µM (inactive) | > 100 µM (inactive) | 51.5 µM (inactive) | > 100 µM (inactive) | > 100 µM (inactive) | > 100 µM (inactive) | > 100 µM (inactive) | > 100 µM (inactive) | > 100 µM (inactive) | 18 µM (inactive) | 53.5 µM (inactive) | > 100 µM (inactive) | 26.9 µM (inactive) | 41.8 µM (inactive) |  |  |  | 
2 | C=C(c1ccccc1)C1(O)CCCCC1N (stereo unspecified) | > 100 µM (inactive) | > 100 µM (inactive) | > 100 µM (inactive) | > 100 µM (inactive) | > 100 µM (inactive) | > 100 µM (inactive) | > 100 µM (inactive) | > 100 µM (inactive) | > 100 µM (inactive) | > 100 µM (inactive) | 31.8 µM (inactive) | 30.3 µM (inactive) | > 100 µM (inactive) | > 100 µM (inactive) | 16.6 µM (inactive) | > 100 µM (inactive) |  |  |  | 
3 | C/N=C(\N)c1ccc(NC(=N)c2ccc(C(=N)Nc3ccc(/C(N)=N/C)cc3)cc2)cc1 | > 100 µM (inactive) | > 100 µM (inactive) | > 100 µM (inactive) |  | > 100 µM (inactive) | > 100 µM (inactive) |  | > 100 µM (inactive) | > 100 µM (inactive) | > 100 µM (inactive) | > 100 µM (inactive) |  | > 100 µM (inactive) | > 100 µM (inactive) | > 100 µM (inactive) | > 100 µM (inactive) |  |  |  | 
4 | NCC1(N2CCOCC2)C2CCCC21CO (stereo unspecified) | > 100 µM (inactive) | > 100 µM (inactive) | > 100 µM (inactive) | > 100 µM (inactive) | > 100 µM (inactive) | > 100 µM (inactive) |  |  | > 100 µM (inactive) | > 100 µM (inactive) | > 100 µM (inactive) | > 100 µM (inactive) | > 100 µM (inactive) | > 100 µM (inactive) | > 100 µM (inactive) | > 100 µM (inactive) |  |  |  | 
5 | COC(=O)C(=O)C(C(=O)C(=O)Nc1ccccc1C(N)=O)c1nc2ccc(C(=O)c3ccccc3)cc2nc1O (stereo unspecified) | > 100 µM (inactive) | > 100 µM (inactive) | > 100 µM (inactive) | > 100 µM (inactive) |  |  | 45 µM (inactive) | > 100 µM (inactive) | > 100 µM (inactive) | > 100 µM (inactive) | 92.5 µM (inactive) | 68.1 µM (inactive) | > 100 µM (inactive) | 58.6 µM (inactive) |  | > 100 µM (inactive) |  |  |  | 
6 | COc1cc(C(Cc2ccccc2)NC(C)=O)oc(=O)c1 (stereo unspecified) |  | > 100 µM (inactive) | > 100 µM (inactive) | > 100 µM (inactive) | > 100 µM (inactive) | > 100 µM (inactive) | > 100 µM (inactive) | 4.14 µM (inactive) | > 100 µM (inactive) | 89.1 µM (inactive) |  |  | > 100 µM (inactive) | > 100 µM (inactive) | > 100 µM (inactive) | > 100 µM (inactive) |  |  |  | 
7 | COc1ccc(C2C(C(=O)O)=C(COC(C)=O)Oc3cc4c(cc32)OCO4)c(OC)c1 (stereo unspecified) | > 100 µM (inactive) | > 100 µM (inactive) | > 100 µM (inactive) | > 100 µM (inactive) | > 100 µM (inactive) | > 100 µM (inactive) |  | > 100 µM (inactive) | > 100 µM (inactive) |  | > 100 µM (inactive) |  | > 100 µM (inactive) | > 100 µM (inactive) | > 100 µM (inactive) | > 100 µM (inactive) |  |  |  | 
8 | CNC1=C(C)C(=O)C(C)=C(C(C)(C)CC(=O)n2cc(F)c(=O)[nH]c2=O)C1=O | 3.97 µM (inactive) |  | > 43.1 µM (inactive) | 7.5 µM (inactive) | > 100 µM (inactive) | 3.97 µM (inactive) | > 23.9 µM (inactive) | > 59.3 µM (inactive) | 68.2 µM (inactive) | 55.7 µM (inactive) | 26.7 µM (inactive) |  | > 63.5 µM (inactive) | 24.3 µM (inactive) | 17.8 µM (inactive) | 74.6 µM (inactive) |  |  |  | 
9 | CC(C#N)N(CCc1ccccc1)C(=O)c1ccccc1 (stereo unspecified) | > 100 µM (inactive) | > 100 µM (inactive) | > 100 µM (inactive) | > 100 µM (inactive) | > 100 µM (inactive) | > 100 µM (inactive) | > 100 µM (inactive) | > 100 µM (inactive) | > 100 µM (inactive) | > 100 µM (inactive) | 47.6 µM (inactive) | > 100 µM (inactive) | > 100 µM (inactive) | 84.9 µM (inactive) | > 100 µM (inactive) |  | > 100 µM (inactive) | > 100 µM (inactive) | 39.2 µM (inactive) | > 100 µM (inactive)
10 | CCCC/C=C/C1Cc2ccccc2CN1S(=O)(=O)c1ccc(C)cc1 (stereo unspecified) | 15.7 µM (inactive) | 5.85 µM (inactive) | 6.67 µM (inactive) | 4.27 µM (inactive) | 26.6 µM (inactive) | 31.5 µM (inactive) |  | 20.9 µM (inactive) | 4.25 µM (inactive) | 10.2 µM (inactive) | 3.97 µM (inactive) | 2.77 µM (inactive) | 14.3 µM (inactive) | 5.6 µM (inactive) | 1.84 µM (inactive) | 3.03 µM (inactive) |  |  |  | 
11 | COC(=O)C(C(=O)C(=O)Nc1ccc(C)cc1C)c1csc(-n2nc(-c3ccccc3)cc2-c2ccccc2)n1 (stereo unspecified) |  | 82.4 µM (inactive) | > 100 µM (inactive) | > 100 µM (inactive) | > 100 µM (inactive) | > 100 µM (inactive) | > 100 µM (inactive) | > 100 µM (inactive) | > 100 µM (inactive) | 86.7 µM (inactive) | 22.5 µM (inactive) | > 100 µM (inactive) |  | 45.6 µM (inactive) | > 100 µM (inactive) | 23.8 µM (inactive) |  |  |  | 
12 | COC1(C)CP(=O)(OC(C)C)CC(C)=C1Cl (stereo unspecified) | 10.7 µM (inactive) | 15 µM (inactive) | 17.3 µM (inactive) | 10.7 µM (inactive) | 49.2 µM (inactive) | 17.9 µM (inactive) | 9.42 µM (inactive) | 15.9 µM (inactive) | 16.9 µM (inactive) | 32.2 µM (inactive) | 22.2 µM (inactive) | 7.19 µM (inactive) | 6.41 µM (inactive) | 17.8 µM (inactive) | 10.9 µM (inactive) |  | 19.3 µM (inactive) | 13.6 µM (inactive) | 13.6 µM (inactive) | 9.84 µM (inactive)
13 | CCOc1cc2ccc3c4cc(OC)c(OC)cc4cnc3c2cc1OCC | > 100 µM (inactive) | > 100 µM (inactive) | > 100 µM (inactive) | > 100 µM (inactive) | > 100 µM (inactive) | > 100 µM (inactive) | > 100 µM (inactive) | > 100 µM (inactive) | > 100 µM (inactive) | > 100 µM (inactive) | > 100 µM (inactive) |  | > 100 µM (inactive) | > 100 µM (inactive) |  | > 100 µM (inactive) |  |  |  | 
14 | COC(=O)/C=C/C(=O)C1C(C(=O)OC)C2(C(=O)OC)CCC1(C(=O)OC)N2 (stereo unspecified) | > 100 µM (inactive) | > 100 µM (inactive) | > 100 µM (inactive) | > 100 µM (inactive) | > 100 µM (inactive) | > 100 µM (inactive) |  | > 100 µM (inactive) |  | > 100 µM (inactive) | > 100 µM (inactive) | > 100 µM (inactive) | > 100 µM (inactive) | > 100 µM (inactive) | > 100 µM (inactive) | > 100 µM (inactive) |  |  |  | 
15 | O=C1C(c2ccc([N+](=O)[O-])cc2)=[N+]([O-])c2ccc([N+](=O)[O-])cc21 | 52.1 µM (inactive) | 28.1 µM (inactive) |  | 33.8 µM (inactive) | 36.4 µM (inactive) |  |  | 77.8 µM (inactive) |  | 40.8 µM (inactive) | 27 µM (inactive) | 35.1 µM (inactive) |  | 48.9 µM (inactive) | 19.5 µM (inactive) | 30.1 µM (inactive) |  |  |  | 
16 | CCCCCCCCCCCCCCCCCCNc1ccn(C2OC(COP(=O)(O)OCC3OC(n4cc(F)c(=O)[nH]c4=O)CC3O)C(O)C2O)c(=O)n1 (stereo unspecified) | 0.207 µM (active) | 60 µM (inactive) | 0.634 µM (active) | 1.48 µM (inactive) | 27.5 µM (inactive) | 0.356 µM (active) | 33.3 µM (inactive) | 14.7 µM (inactive) | > 89.7 µM (inactive) | 0.0914 µM (active) | 1.63 µM (inactive) | 0.337 µM (active) | 51.9 µM (inactive) | 0.498 µM (active) | 0.678 µM (active) |  | 2.43 µM (inactive) | 37.9 µM (inactive) | 27.9 µM (inactive) | 17.8 µM (inactive)
17 | c1ccc(N2N=NC3C4CC(C5c6ccccc6C45)C32)cc1 (stereo unspecified) | 78.5 µM (inactive) | 27.3 µM (inactive) | 20.8 µM (inactive) | 24 µM (inactive) | 31.5 µM (inactive) | 64.4 µM (inactive) | 39.1 µM (inactive) | > 100 µM (inactive) | 24.2 µM (inactive) | 34.8 µM (inactive) | 17.1 µM (inactive) | 20.2 µM (inactive) |  | 28.2 µM (inactive) | 19.1 µM (inactive) | 19.9 µM (inactive) |  |  |  | 
18 | COc1cc2c(cc1O)CCN[C@@]21CS[C@H]2c3c(OC(C)=O)c(C)c4c(c3C(COC1=O)N1C2C2NC(Cc3cc(C)c(OC)c(O)c32)[C@@H]1C#N)OCO4 (stereo partly specified) | < 0.01 µM (active) | < 0.01 µM (active) | < 0.01 µM (active) | < 0.01 µM (active) |  | < 0.01 µM (active) | < 0.01 µM (active) | < 0.01 µM (active) |  | < 0.01 µM (active) | < 0.01 µM (active) | < 0.01 µM (active) | < 0.01 µM (active) | < 0.01 µM (active) | < 0.01 µM (active) | < 0.01 µM (active) |  |  |  | 
